# Measurements taken from paper PMC8119466, “A screen of FDA-approved drugs identifies inhibitors of protein tyrosine phosphatase 4A3 (PTP4A3 or PRL-3)” (Scientific Reports, 2021).
# Where a name gives a salt, the structure may show the parent alone.
# Experiments:
# Format in all cases: biochemical
# Conditions in all cases: FDA-approved drug screen
# recombinant PRL-1 = target: T1, recombinant PRL-1 (Homo sapiens, UniProt Q93096); assay: In vitro phosphatase assay (DiFMUP hydrolysis), PRL-1; note: test concentration or dose not given here
# T1 construct: 6xHis (N, cleaved yes); made in house; host or cells: E. coli One Shot BL21 Star
# T1 sequence (Q93096 1-173): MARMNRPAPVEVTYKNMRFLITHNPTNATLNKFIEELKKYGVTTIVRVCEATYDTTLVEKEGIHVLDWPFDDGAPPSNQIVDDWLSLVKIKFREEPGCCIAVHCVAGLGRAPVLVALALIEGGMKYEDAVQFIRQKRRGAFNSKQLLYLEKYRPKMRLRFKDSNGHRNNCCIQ
# recombinant PRL-2 = target: T2, recombinant PRL-2 (Homo sapiens, UniProt Q12974); assay: In vitro phosphatase assay (DiFMUP hydrolysis), PRL-2;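 note: PRL-2 activity read as DiFMUP hydrolysis after 20 min at room temperature with drug, enzyme first pre-reduced at 4 °C for 20 min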
# T2 construct: 6xHis (N, cleaved yes); made in house; host or cells: E. coli One Shot BL21 Star
# T2 sequence (Q12974 1-167): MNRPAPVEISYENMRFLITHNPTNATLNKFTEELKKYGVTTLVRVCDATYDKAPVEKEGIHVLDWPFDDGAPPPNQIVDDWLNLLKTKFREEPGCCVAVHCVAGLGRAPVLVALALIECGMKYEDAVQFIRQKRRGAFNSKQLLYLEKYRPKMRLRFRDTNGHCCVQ
# Experimental: Briefly, protein was diluted in reaction buffer and allowed to incubate at 4 °C for 20 min to allow for full reduction of the active site. DiFMUP, drug, and protein were added, and plates were incubated for 20 min at room temperature. Fluorescence intensities were measured on a Cytation 5 plate reader (Biotek) at an EX:360 nm and EM:460 nm. […] Inhibition selectivity for PRLs over a panel of other phosphatases was determined using PhosphataseProfiler (Eurofins, Cat # PP260).
# recombinant PRL-3 = target: T3, recombinant PRL-3 (Homo sapiens, UniProt O75365); assay: In vitro phosphatase assay (DiFMUP hydrolysis), PRL-3; note: test concentration or dose not given here
# T3 construct: 6xHis (N, cleaved yes); made in house; host or cells: E. coli One Shot BL21 Star
# T3 sequence (O75365 whole entry): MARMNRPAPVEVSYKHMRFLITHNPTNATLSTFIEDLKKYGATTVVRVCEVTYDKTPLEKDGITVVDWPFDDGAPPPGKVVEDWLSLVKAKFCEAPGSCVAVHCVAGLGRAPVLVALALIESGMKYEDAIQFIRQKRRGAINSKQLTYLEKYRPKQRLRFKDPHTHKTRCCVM
% Phosphatase Activity (compared to DMSO) PRL-1 (recombinant PRL-1; activity compared to DMSO) [%],% Phosphatase Activity (compared to DMSO) PRL-2 (recombinant PRL-2; activity compared to DMSO) [%],% Phosphatase Activity (compared to DMSO) PRL-3 (recombinant PRL-3; activity compared to DMSO) [%],Compound,% Phosphatase Activity (compared to DMSO) PRL-1 (recombinant PRL-1; compared to DMSO) [%],% Phosphatase Activity (compared to DMSO) PRL-2 (recombinant PRL-2; compared to DMSO) [%],% Phosphatase Activity (compared to DMSO) PRL-3 (recombinant PRL-3; compared to DMSO) [%]
–,–,–,CN(C)C/C=C/C(=O)Nc1cc2c(Nc3ccc(F)c(Cl)c3)ncnc2cc1O[C@H]1CCOC1.O=C(O)/C=C\C(=O)O.O=C(O)/C=C\C(=O)O [Afatinib (BIBW2992) Dimaleate],97,94,101
–,–,–,CC(=O)O[C@H]1Cc2ccccc2N(C(N)=O)c2ccccc21 [Eslicarbazepine Acetate],94,117,75
–,–,–,CCN1CCN(Cc2ccc(Nc3ncc(F)c(-c4cc(F)c5nc(C)n(C(C)C)c5c4)n3)nc2)CC1 [LY2835219],92,79,99
–,–,–,CC(C)c1nc(CN(C)C(=O)N[C@@H](CCN2CCOCC2)C(=O)N[C@H](CC[C@H](Cc2ccccc2)NC(=O)OCc2cncs2)Cc2ccccc2)cs1 [Cobicistat (GS-9350)],88,95,95
–,–,–,Cl.O=C(OCC(O)CO)c1ccccc1Nc1ccnc2cc(Cl)ccc12 (stereo not drawn) [Glafenine HCl],77,71,80
–,–,–,FC(F)(F)c1ccc(CNc2ccc(Cc3c[nH]c4ncc(Cl)cc34)cn2)cn1 [Pexidartinib (PLX3397)],102,100,101
95,97,101,CC(C)(C)NCC(O)c1cc(O)cc(O)c1 (stereo not drawn) [Terbutaline Sulfate],–,–,–
–,–,–,CC(NC(C)(C)C)C(=O)c1cccc(Cl)c1.Cl (stereo not drawn) [Amfebutamone HCl],102,110,77
–,–,–,CC#C[C@]1(O)CC[C@H]2[C@@H]3CCC4=CC(=O)CCC4=C3[C@@H](c3ccc(N(C)C)cc3)C[C@@]21C [Mifepristone],96,135,95
–,–,–,CC(C)(C)NCC(O)COc1cccc2c1CCC(=O)N2 (stereo not drawn) [Carteolol HCl],100,87,71
–,–,–,COc1ccc(-c2ccc3cc(C(=O)O)ccc3c2)cc1C12CC3CC(CC(C3)C1)C2 [Adapalene],183,141,68
–,–,–,CCC[C@H](N[C@@H](C)C(=O)N1[C@H](C(=O)O)C[C@@H]2CCCC[C@@H]21)C(=O)OCC [Perindopril Erbumine],88,84,96
–,–,–,CCCC1O[C@@H]2C[C@H]3[C@@H]4CCC5=CC(=O)C=C[C@]5(C)[C@H]4[C@@H](O)C[C@]3(C)[C@]2(C(=O)CO)O1 (stereo partly drawn) [Budesonide],93,100,76
–,–,–,Bivalirudin Trifluoroacetate,86,81,88
–,–,–,Oc1c(I)cc(I)c2cccnc12 [Diiodohydroxyquinoline],89,108,81
–,–,–,CNCCc1ccccn1.Cl.Cl [Betahistine 2HCl],93,96,87
